Data reported in article PMC11507523, “Development of Malate Biosensor-Containing Hydrogels and Living Cell-Based Sensors” (International Journal of Molecular Sciences, 2024).

Target: T1, CitT (Escherichia coli, UniProt P0AE74)
T1 construct: CitT co-expressed with Malon in E. coli BL21 cells
T1 sequence (P0AE74 1-487): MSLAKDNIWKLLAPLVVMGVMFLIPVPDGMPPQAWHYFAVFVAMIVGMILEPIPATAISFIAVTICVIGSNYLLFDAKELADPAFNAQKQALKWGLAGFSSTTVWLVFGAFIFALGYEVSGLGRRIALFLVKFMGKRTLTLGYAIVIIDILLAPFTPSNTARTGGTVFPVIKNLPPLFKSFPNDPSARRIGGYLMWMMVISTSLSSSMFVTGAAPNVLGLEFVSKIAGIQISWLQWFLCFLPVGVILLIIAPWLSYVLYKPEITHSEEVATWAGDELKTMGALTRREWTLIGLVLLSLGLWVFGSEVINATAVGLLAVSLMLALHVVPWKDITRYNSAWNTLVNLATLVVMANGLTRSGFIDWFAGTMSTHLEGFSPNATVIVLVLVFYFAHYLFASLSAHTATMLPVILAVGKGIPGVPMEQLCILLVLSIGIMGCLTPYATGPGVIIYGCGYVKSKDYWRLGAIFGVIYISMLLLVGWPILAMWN
Assay: CitT-dependent malate uptake in E. coli, Malon fluorescence by flow cytometry
Format: cell-based

O=C(O)C[C@H](O)C(=O)O [malate]
CitT-dependent malate uptake in E. coli, Malon fluorescence by flow cytometry: Without the CitT transporter, little to no change in fluorescence was observed upon addition of malate
